Source: patent US4968669A, “Parathyroid hormone antagonists” (Merck & Co., Inc., priority 1989, dated 1990)

Key:
[1] = molecular target: T1, PTH receptor in bovine renal cortical plasma membranes (Bos taurus, UniProt Q1LZF7); assay: PTH binding assay, bovine renal cortical plasma membranes, radioligand [Nle8,18,125I-Tyr34]bPTH(1-34)NH2; conditions: 30 min at 21° C
T1 construct: from tissue; host or cells: bovine renal cortex, plasma membranes
T1 sequence (Q1LZF7 29-589): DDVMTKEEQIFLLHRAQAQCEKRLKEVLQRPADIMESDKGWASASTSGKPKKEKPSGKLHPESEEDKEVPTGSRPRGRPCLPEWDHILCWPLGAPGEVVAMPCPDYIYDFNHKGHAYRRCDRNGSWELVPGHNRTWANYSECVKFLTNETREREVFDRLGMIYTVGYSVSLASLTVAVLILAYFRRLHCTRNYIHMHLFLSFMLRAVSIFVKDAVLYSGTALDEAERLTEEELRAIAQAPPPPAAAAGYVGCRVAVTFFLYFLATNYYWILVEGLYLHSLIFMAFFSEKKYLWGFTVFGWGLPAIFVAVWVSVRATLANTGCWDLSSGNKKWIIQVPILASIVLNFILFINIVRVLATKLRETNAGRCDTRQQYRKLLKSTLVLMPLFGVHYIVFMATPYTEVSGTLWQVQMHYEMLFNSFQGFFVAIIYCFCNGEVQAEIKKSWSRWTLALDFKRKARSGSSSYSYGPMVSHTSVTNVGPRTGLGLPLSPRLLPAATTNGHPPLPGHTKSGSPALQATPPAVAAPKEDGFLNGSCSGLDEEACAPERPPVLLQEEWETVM
Method: Bovine renal cortical plasma membranes were incubated with radioligand (25,000 cpm) in the absence or presence of PTH analogues in a Tris containing buffer (250 μl) for 30 min. at 21° C. Once equilibrium was reached, bound and free radioligand were separated by centrifugation.

[2] = molecular target: T2, I^125 -labeled PTH binding to rat osteosarcoma cell line ROS 17/2.8 (Rattus norvegicus, UniProt P25961); assay: PTH binding assay, ROS 17/2.8 cells
T2 construct: bone-derived rat osteosarcoma cell line ROS 17/2.8; endogenous in cells; host or cells: ROS 17/2.8 rat osteosarcoma cells
T2 sequence (P25961 27-591): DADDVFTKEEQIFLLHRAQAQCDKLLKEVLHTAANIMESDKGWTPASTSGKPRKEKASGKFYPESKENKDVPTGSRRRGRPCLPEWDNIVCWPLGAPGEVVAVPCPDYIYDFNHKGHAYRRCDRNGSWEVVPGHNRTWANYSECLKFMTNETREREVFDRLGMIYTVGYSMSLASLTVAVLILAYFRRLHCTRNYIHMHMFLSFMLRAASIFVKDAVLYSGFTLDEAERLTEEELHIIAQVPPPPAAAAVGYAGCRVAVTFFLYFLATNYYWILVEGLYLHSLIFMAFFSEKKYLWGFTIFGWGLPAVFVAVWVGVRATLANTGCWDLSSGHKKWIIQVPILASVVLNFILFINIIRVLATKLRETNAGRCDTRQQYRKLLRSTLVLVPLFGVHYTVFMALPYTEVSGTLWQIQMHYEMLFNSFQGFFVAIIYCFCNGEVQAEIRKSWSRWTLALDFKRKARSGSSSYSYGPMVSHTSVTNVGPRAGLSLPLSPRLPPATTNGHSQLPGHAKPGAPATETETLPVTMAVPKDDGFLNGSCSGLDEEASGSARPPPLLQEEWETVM

[3] = molecular target: T3, I^125 -labeled PTH binding to canine renal cortical membranes (Canis lupus familiaris, UniProt Q9TU31); assay: PTH binding assay (canine kidney)
T3 construct: from tissue; host or cells: canine renal cortex, membranes
T3 sequence (Q9TU31 29-595): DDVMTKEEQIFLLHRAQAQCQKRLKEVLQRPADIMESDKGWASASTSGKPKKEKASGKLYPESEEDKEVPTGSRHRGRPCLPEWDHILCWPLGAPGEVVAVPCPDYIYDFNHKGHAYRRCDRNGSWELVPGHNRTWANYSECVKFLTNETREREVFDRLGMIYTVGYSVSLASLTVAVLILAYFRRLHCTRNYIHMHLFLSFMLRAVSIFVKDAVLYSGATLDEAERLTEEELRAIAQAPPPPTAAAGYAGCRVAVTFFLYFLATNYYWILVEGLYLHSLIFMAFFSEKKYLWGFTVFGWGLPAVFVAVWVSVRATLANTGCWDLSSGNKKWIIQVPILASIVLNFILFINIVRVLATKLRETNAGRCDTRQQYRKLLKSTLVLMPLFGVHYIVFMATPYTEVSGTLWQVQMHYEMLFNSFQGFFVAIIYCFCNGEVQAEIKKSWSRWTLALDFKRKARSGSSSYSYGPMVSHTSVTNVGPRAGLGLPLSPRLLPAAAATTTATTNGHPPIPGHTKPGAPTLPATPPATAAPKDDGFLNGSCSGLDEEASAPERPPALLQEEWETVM

[4] = molecular target: T4, I^125 -labeled PTH binding to human osteosarcoma cells (BIO) (Homo sapiens, UniProt Q03431); assay: PTH binding assay (human osteosarcoma cells)
T4 construct: endogenous in cells; host or cells: human osteosarcoma cells (BIO)
T4 sequence (Q03431 27-593): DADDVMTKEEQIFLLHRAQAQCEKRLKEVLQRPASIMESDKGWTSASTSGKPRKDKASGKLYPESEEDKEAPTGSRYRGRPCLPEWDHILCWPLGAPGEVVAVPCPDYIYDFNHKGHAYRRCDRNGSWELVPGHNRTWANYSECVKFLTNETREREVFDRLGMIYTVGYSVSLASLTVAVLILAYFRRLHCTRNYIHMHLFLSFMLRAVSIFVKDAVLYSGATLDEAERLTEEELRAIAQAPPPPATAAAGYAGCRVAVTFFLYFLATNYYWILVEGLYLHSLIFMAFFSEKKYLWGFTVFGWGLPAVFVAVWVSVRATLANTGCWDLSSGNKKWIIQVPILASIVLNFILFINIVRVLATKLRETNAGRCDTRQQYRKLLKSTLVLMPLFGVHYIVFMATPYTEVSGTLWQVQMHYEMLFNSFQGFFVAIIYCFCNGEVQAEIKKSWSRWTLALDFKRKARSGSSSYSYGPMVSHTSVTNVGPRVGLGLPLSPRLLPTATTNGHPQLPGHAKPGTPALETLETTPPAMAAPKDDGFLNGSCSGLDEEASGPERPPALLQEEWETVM
From the text: The results are as follows:

| SMILES | Ki [1] [nM] | Ki [2] [nM] | Ki [3] [nM] | Ki [4] [nM] |
| --- | --- | --- | --- | --- |
| CCCC[C@H](NC(=O)[C@H](CO)NC(=O)[C@H](CO)NC(=O)[C@H](CC(C)C)NC(=O)[C@H](Cc1c[nH]cn1)NC(=O)[C@H](CCCCN)NC(=O)CNC(=O)[C@H](CC(C)C)NC(=O)[C@H](CC(N)=O)NC(=O)[C@H](Cc1c[nH]cn1)NC(=O)[C@H](CCCC)NC(=O)[C@@H](N)Cc1ccccc1)C(=O)N[C@@H](CCC(=O)O)C(=O)N[C@@H](CCCNC(=N)N)C(=O)N[C@H](C(=O)N[C@@H](CCC(=O)O)C(=O)N[C@@H](Cc1c[nH]c2ccccc12)C(=O)N[C@@H](CC(C)C)C(=O)N[C@@H](CCCNC(=N)N)C(=O)N[C@@H](CCCCN)C(=O)N[C@@H](CCCCN)C(=O)N[C@@H](CC(C)C)C(=O)N[C@@H](CCC(N)=O)C(=O)N[C@@H](CC(=O)O)C(=O)N[C@H](C(=O)N[C@@H](Cc1c[nH]cn1)C(=O)N[C@@H](CC(N)=O)C(=O)N[C@@H](Cc1ccc(O)cc1)C(N)=O)C(C)C)C(C)C [[Nle^8,18,Tyr^34]bPTH(7-34)NH2] | 145 ± 13 | 964 ± 170 | – | – |
| CSCC[C@H](NC(=O)[C@H](CO)NC(=O)[C@H](CO)NC(=O)[C@H](CC(C)C)NC(=O)[C@H](Cc1c[nH]cn1)NC(=O)[C@H](CCCCN)NC(=O)CNC(=O)[C@H](CC(C)C)NC(=O)[C@H](CC(N)=O)NC(=O)[C@H](Cc1c[nH]cn1)NC(=O)[C@H](CCSC)NC(=O)[C@@H](N)Cc1ccccc1)C(=O)N[C@@H](CCC(=O)O)C(=O)N[C@@H](CCCNC(=N)N)C(=O)N[C@H](C(=O)N[C@@H](CCC(=O)O)C(=O)N[C@@H](Cc1c[nH]c2ccccc12)C(=O)N[C@@H](CC(C)C)C(=O)N[C@@H](CCCNC(=N)N)C(=O)N[C@@H](CCCCN)C(=O)N[C@@H](CCCCN)C(=O)N[C@@H](CC(C)C)C(=O)N[C@@H](CCC(N)=O)C(=O)N[C@@H](CC(=O)O)C(=O)N[C@H](C(=O)N[C@@H](Cc1c[nH]cn1)C(=O)N[C@@H](CC(N)=O)C(=O)N[C@@H](Cc1ccc(O)cc1)C(N)=O)C(C)C)C(C)C [[Tyr^34]bPTH(7-34)NH2] | 76 ± 9 | 700 ± 90 | 45.8 ± 11.3 | 5.5 ± 1.6 |
